The text below walks through data of publication PMC11189555, “Aryl amino acetamides prevent Plasmodium falciparum ring development via targeting the lipid-transfer protein PfSTART1” (Nature Communications, 2024).

Where “and” joins values, the source holds several entries; their conditions need not be identical. Identical values can stand only once.

For assay [1], the system named is 3D7, SLI- and CR- WT, N309K, N330K parasites. In words: Parasite growth over 72 h in the presence of GlcN (LDH). In kind it is cell-based, Plasmodium falciparum. The settings on record: for Growth over 72 h, 0.25 mM / 0 mM / Growth over 72 h, 2.5 mM / 0 mM: biological replicates 1-4; for Growth over 72 h (mean of raw readings) / Growth over 72 h normalised to 0 mM GlcN (= 100): biological replicates 1-3; for Growth over 72 h (raw reading): biological replicates 1-3, DMSO data of M833 and W991 sets. The procedure:
thereafter called SLI-WT, SLI-N309K and SLI-N330K). gDNA was extracted and a PCR was conducted to check for correct integration using primers START_5’UTR.F and START_Seq.R (Table S2); the same PCR on 3D7 gDNA was used as a control, as no bands should be observed in the 3D7 samples. (B) The sequencing of the PCR […]
and that SLI-N309K and SLI-N330K contain the correct mutations. (C) Growth of 3D7, SLI-WT, -N309K or -N330K over 72 h in the presence of 0, 0.25 or 2.5 mM GlcN was measured with an LDH assay. Growth was normalised to the 0 mM GlcN condition. n=4 biological replicates. Ordinary one-way ANOVA with Dunnett’s multiple comparison test (comparison to the 0 mM condition). **: p<0.005. ***: p<0.0005. ****: p<0.0001. (D) Similar to SLI parasites, CRISPR transfectant parasites were cloned:
CR-WT clone D2, CR-N309K clone C10 and CR-N330K clone B2, thereafter called CR-WT, CR-N309K and CR-N330K. A PCR was conducted to check for correct integration using primers START_5’UTR.F and START_IntR1; 3D7 gDNA was used […]
wild-type version of pfstart1, and that CR-N309K and CR-N330K contain the correct mutations. (F) Growth of 3D7, CR-WT, -N309K or -N330K over 72 h in the presence of 0, 0.25 or 2.5 mM GlcN was measured by LDH assay (same as (C); n=6 biological replicates). Source data are provided as a Source Data file. […]
and compound 4. Note that M-833 was first purchased from MolPort (MolPort -002-267-916) then made in-house at WEHI: the differences observed in EC50s across experiments are attributed to the different batches of M -833. For some experiments, 0, 0.25 or 2.5 mM of glucosamine (GlcN) was also added. Experiments were set up in technical duplicates or triplicates. Following a freeze -thaw cycle, lactate dehydrogenase (LDH) activity was assessed as an indicator of parasite growt h 5. 30 μL of parasite culture was incubated for 30 min in the dark with 75 μL Malstat mixture (0.1 M Tris pH 9.0, 20 g/L lactic acid, pH 7.5, 0.2% Triton-X100, 0.5 g/L acetylpyridine adenine dinucleotide (APAD, Sigma), 200 μg/mL nitroblue tetrazolium (NBT; Sigma), 1 μg/mL phenozine ethosulfate (PES; Sigma)). Absorbance was then measured at 650 nm, transformed using the formula below, plotted against the logarithm of the concentrations, and a non-linear regression (log(inhibitor) vs. response, variable slope) was calculated using GraphPad Prism to assess the half-inhibitory […]
Growth inhibition % = (1 − average(sample)− average(uRBC)) ∗ 100 […]
The DMSO samples were also used to assess growth of parasite in the presence of 0.25 and 2.5 mM GlcN (normalised by DMSO in 0 mM GlcN). […]

Assay [2] has as its target T1, recombinant PfSTART1(N330K) (I149-V394) (Plasmodium falciparum, UniProt Q8I298, N330K).
T1 construct: 8xHis tag (N); TEV protease cleavage site (N); made in house; host or cells: Sf21 insect cells (baculovirus)
T1 sequence (Q8I298 149-394 N330K): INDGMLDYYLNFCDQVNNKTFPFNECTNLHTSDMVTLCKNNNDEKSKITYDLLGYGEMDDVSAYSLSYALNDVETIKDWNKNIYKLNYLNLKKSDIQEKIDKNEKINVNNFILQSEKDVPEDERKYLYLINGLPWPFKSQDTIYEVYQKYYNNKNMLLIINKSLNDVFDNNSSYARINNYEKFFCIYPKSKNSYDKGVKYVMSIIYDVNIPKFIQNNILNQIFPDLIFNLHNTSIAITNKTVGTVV
In words: Isothermal titration calorimetry. Type of assay: binding. As to conditions: for Differential Power DP_Y / ΔH NDH_Y: PfSTART(N330K), ITC replicate data. From the text: S. frugiperda codon optimised full-length N309K and N330K PfSTART1 mutants were first synthesised by Integrated DNA Technologies, and then I149 forward and V394 reverse primers utilised to clone the same I149-V394 construct boundaries into the modified pAcGP67a expression vector with a N-terminal GP67-signal sequence, 8xHis tag, and TEV protease cleavage site. As a result of the subcloning, SSG was removed upstream of the TEV cleavage site. Construct boundaries and incorporation of the N309K and N330K mutations was verified by Sanger sequencing. The PfSTART1 mutants were expressed and purified as per wild-type PfSTART1.
ITC experiments were performed on a MicroCal PEAQ-ITC calorimeter at 25 °C, with a stirring speed of 750 rpm and a reference power of 5 μcal/sec. 500 μM M-833 series inhibitor solutions were diluted to 10 μM in 50 mM NaPO4^-3 (pH 7.4), 150 mM NaCl with a final DMSO concentration of 2% (v/v) (cell sample). PfSTART1 protein was dialysed extensively against 50 mM NaPO4^-3 (pH 7.4), 150 mM NaCl, before diluting to 90 μM in the same buffer with 2% (v/v) DMSO (syringe sample). The first injection was 0.4 μL over a 0.8 s duration, and the remaining 19 injections were 2 μL of 4 s duration, with 150 s injection spacing. Data were collected and analysed using the PEAQ-ITC software (MicroCal) and fit by a single site binding model. A fitted offset (constant control heat) was also applied to the integrated heat.

Where [3] appears, read: CR-N309K parasites, 0.25 mM GlcN.
[4] abbreviates: CR-N309K parasites, 2.5 mM GlcN.
Where [5] appears, read: CR-N330K parasites, 0.25 mM GlcN.
The mark [6] stands for this setting: CR-N330K parasites, 2.5 mM GlcN.

`N[C@H]1C(O)O[C@H](CO)[C@@H](O)[C@@H]1O` (stereo partly shown) [GlcN, glucosamine]: the “Growth over 72 h, 0.25 mM / 0 mM” value in assay [1] (3D7, 0.25 mM GlcN) is 98.6386 and 100.075 and 99.6504 and 92.7264; in assay [1] (SLI-N309K, 0.25 mM GlcN) it was 84.2717 and 93.806 and 99.7943 and 79.4202; in assay [1] (SLI-N330K, 0.25 mM GlcN) it was 88.793 and 84.0431 and 73.2682 and 86.1624; in assay [1] (SLI-WT, 0.25 mM GlcN) it was 108.267 and 89.5536 and 80.5452 and 87.3943. The “Growth over 72 h, 2.5 mM / 0 mM” value in assay [1] (3D7, 2.5 mM GlcN) was 77.3282 and 91.4546 and 81.2488 and 87.4334; in assay [1] (SLI-N309K, 2.5 mM GlcN), 52.5042 and 74.3497 and 80.6954 and 57.9574; in assay [1] (SLI-N330K, 2.5 mM GlcN), 52.5716 and 59.0221 and 51.4095 and 62.9405; in assay [1] (SLI-WT, 2.5 mM GlcN) it was 78.3352 and 62.7379 and 46.4436 and 59.8798. For the same molecule, in assay [1] (3D7, 2.5 mM GlcN, 72 h), the reduced growth was ~ 5%. For the same molecule, the “Growth over 72 h (mean of raw readings)” value in assay [1] (3D7 parasites, 0.25 mM GlcN) was 0.1623 and 0.1668 and 0.4453 and 0.6687 and 0.4936 and 0.5657; in assay [1] (3D7 parasites, 2.5 mM GlcN), 0.1303 and 0.133 and 0.3936 and 0.3428 and 0.669 and 0.5661; in assay [1] (setting [3]), 0.127 and 0.1406 and 0.5399 and 0.6825 and 0.5806 and 0.5768; in assay [1] (setting [4]), 0.0842 and 0.08195 and 0.3029 and 0.2482 and 0.3611 and 0.3044; in assay [1] (setting [5]), 0.2349 and 0.2489 and 0.3654 and 0.7776 and 0.3572 and 0.7298; in assay [1] (setting [6]), 0.1315 and 0.1328 and 0.1893 and 0.172 and 0.7048 and 0.6593. Further, the “Growth over 72 h (mean of raw readings)” value in assay [1] (CR-WT parasites, 0.25 mM GlcN) was 0.2131 and 0.2403 and 0.4884 and 0.5805 and 0.5445 and 0.4768; in assay [1] (CR-WT parasites, 2.5 mM GlcN) it was 0.1497 and 0.1625 and 0.3987 and 0.36 and 0.5094 and 0.4461. Further, the “Growth over 72 h normalised to 0 mM GlcN (= 100)” value is 99.2357 and 96.4441 and 83.2336 and 124.534 and 89.0493 and 116.399 in assay [1] (3D7 parasites, 0.25 mM GlcN); 79.6393 and 76.9008 and 73.5607 and 61.8528 and 124.572 and 116.481 in assay [1] (3D7 parasites, 2.5 mM GlcN); 83.6627 and 84.6177 and 96.1271 and 111.164 and 88.2706 and 96.8194 in assay [1] (setting [3]); 55.4677 and 49.3377 and 53.9263 and 37.7271 and 58.8111 and 51.0826 in assay [1] (setting [4]); 94.757 and 83.1329 and 83.9922 and 102.755 and 71.8539 and 97.5734 in assay [1] (setting [5]); 53.0349 and 44.3554 and 43.5072 and 34.6042 and 93.1356 and 88.1543 in assay [1] (setting [6]). The “Growth over 72 h normalised to 0 mM GlcN (= 100)” value was 94.7322 and 91.6651 and 102.262 and 415.2 and 101.567 and 345.382 in assay [1] (CR-WT parasites, 0.25 mM GlcN); 66.5703 and 61.9874 and 83.4991 and 67.1517 and 364.413 and 323.18 in assay [1] (CR-WT parasites, 2.5 mM GlcN). Further, the “Growth over 72 h (raw reading)” value in assay [1] (3D7 parasites, 0.25 mM GlcN) was 0.1683 and 0.1751 and 0.4506 and 0.6702 and 0.5044 and 0.558 and 0.1563 and 0.1585 and 0.44 and 0.6673 and 0.4828 and 0.5734; in assay [1] (3D7 parasites, 2.5 mM GlcN), 0.137 and 0.138 and 0.4268 and 0.3683 and 0.6835 and 0.563 and 0.1235 and 0.128 and 0.3603 and 0.3174 and 0.6544 and 0.5692; in assay [1] (setting [3]), 0.13 and 0.1405 and 0.5297 and 0.694 and 0.5709 and 0.5788 and 0.124 and 0.1406 and 0.55 and 0.6711 and 0.5903 and 0.5749; in assay [1] (setting [4]), 0.0834 (2×) and 0.3049 and 0.2428 and 0.3713 and 0.3087 and 0.085 and 0.0805 and 0.3008 and 0.2535 and 0.3509 and 0.3; in assay [1] (setting [5]), 0.2498 and 0.2614 and 0.3895 and 0.7636 and 0.4102 and 0.7252 and 0.2201 and 0.2364 and 0.3414 and 0.7917 and 0.3041 and 0.7344; in assay [1] (setting [6]), 0.1385 and 0.1375 and 0.1953 and 0.1767 and 0.7177 and 0.6721 and 0.1245 and 0.1281 and 0.1833 and 0.1673 and 0.692 and 0.6466. In addition, the “Growth over 72 h (raw reading)” value in assay [1] (CR-WT parasites, 0.25 mM GlcN) is 0.2167 and 0.241 and 0.4948 and 0.5777 and 0.5446 and 0.4838 and 0.2095 and 0.2396 and 0.4819 and 0.5832 and 0.5444 and 0.4698; in assay [1] (CR-WT parasites, 2.5 mM GlcN), 0.1508 and 0.1623 and 0.3842 and 0.3527 and 0.5062 and 0.4479 and 0.1487 and 0.1627 and 0.4133 and 0.3673 and 0.5127 and 0.4444. The “growth less than in the absence of GlcN” value in assay [1] (CR-N309K, 2.5 mM GlcN, 72 h) is reported as 50%; in assay [1] (most SLI- and CR- lines, 2.5 mM GlcN, 72 h) it was “approximately 40%”.
On to `CC(C)(Nc1ccc(Cl)c(S(=O)(=O)N2CCOCC2)c1)C(=O)Nc1ccc(F)c(Cl)c1` [W-991], for which the “interaction with PfSTART1(N330K)” value in assay [2] (ITC) is given as “no interaction”. In addition, the “Differential Power DP_Y” value in assay [2] (DP_X 0.083333) is on record as -0.001242; in assay [2] (DP_X 0.1) it was -0.0011. Moreover, the “ΔH NDH_Y” value in assay [2] (NDH_X 0.104703) is recorded as -2.588; in assay [2] (NDH_X 0.192876), -2.749.
